Data: PMC3608651, “A Broad Profile of Co-Dominant Epitopes Shapes the Peripheral Mycobacterium tuberculosis Specific CD8+ T-Cell Immune Response in South African Patients with Active Tuberculosis” (PLoS ONE, 2013)
Where two headings read alike, the source gives them in different places.

Tests used:
Type in all cases: binding
[1] = molecular target: HLA-A*30:01 (Homo sapiens, UniProt P04439, D140H/D185E/E176W/F33S/G80R/H175R/K168Q/R138E/R41S); details: duplicated experiments, positive binder >40%
[2] = molecular target: HLA-A*02:01 (Homo sapiens, UniProt P04439, D140Y/D185E/D98H/E176V/E277Q/G131W/G231S/I119V/I121R/I166T/I218V/L300P/L318F/N151K/N90K/P208A/P217A/Q86G/Q94H/R138H/R169H/T345S)
[3] = molecular target: HLA-A*30:02 (Homo sapiens, UniProt P04439, D101N/D140H/D185E/E176R/F33S/G80R/H175R/K168Q/Q94H/R138E/R41S/V100E); details: duplicated experiments, positive binder >40%
[4] = molecular target: HLA-B*58:01 (Homo sapiens, UniProt P01889, A329T/C349S/D201E/D98Y/E176V/E187L/E204Q/E69T/G107R/I218V/I90N/K202T/L105A/L119I/N104I/N87E/Q89R/Q94S/R106L/R155S/R180L/R86G/S101N/S121R/S35A/S48A/T118I/V127L/V306I/V36M/Y140S/Y91M); details: duplicated experiments, positive binder >40%
[5] = molecular target: HLA-B*07:02 (Homo sapiens, UniProt P01889); details: percent relative the binding of positive control peptide […]; duplicated experiments; positive binder >40%
[6] = molecular target: HLA-A*24:02 (Homo sapiens, UniProt P04439, D101N/D140Y/D185E/E176V/E190D/F33S/G103R/G107R/I119L/I121M/I306V/K335N/L105A/L180Q/L300P/N151K/N90K/Q86E/Q94H/R106L/R138H/R89G/T104I/T345S/V100E/W191G/Y123F)
[7] = molecular target: HLA-A*68:01 (Homo sapiens, UniProt P04439, A269V/D185E/E176V/E277Q/E87N/F33Y/G231S/I121M/I166T/I218V/L180W/L300P/L318F/N151K/P208A/P217A/Q86R/R169H/T345S); details: duplicated experiments, positive binder >40%
[8] = molecular target: HLA-C*07:01 (Homo sapiens, UniProt P10321, K90N/S123Y); details: duplicated experiments, positive binder >40%
[9] = percent relative the binding of positive control peptide […]
[10] = percent relative the binding of positive control peptide […], plate-bound monomer 0.5 µg/ml, duplicated experiments, positive binder >40%
[11] = percent relative the binding of positive control peptide […], duplicated experiments, positive binder >40%
[12] = percent relative the binding of positive control peptide KTKDIVNGL
[13] = percent relative the binding of positive control peptide FLPSDFFPSV, plate-bound monomer 0.5 µg/ml, duplicated experiments, positive binder >40%
[14] = percent relative the binding of positive control peptide KIQNFRVYY
[15] = percent relative the binding of positive control peptide IAMESIVIW
[16] = percent relative the binding of positive control peptide RYLKDQQLL, duplicated experiments, positive binder >40%
[17] = percent relative the binding of positive control peptide KTGGPIYKR
[18] = percent relative the binding of positive control peptide KYFDEHYEY

| Substance | Bind A*30:01 [1, 9] [%] | Bind A*02:01 [2, 10] [%] | Bind A*30:02 [3, 9] [%] | Bind B*58:01 [4, 9] [%] | Bind B*07:02 [5] [%] | Bind A*24:02 [6, 11] [%] | Bind A*68:01 [7, 9] [%] | Bind C*07:01 [8, 9] [%] | Bind A*30:01 [1, 12] [%] | Bind A*02:01 [2, 13] [%] | Bind A*30:02 [3, 14] [%] | Bind B*58:01 [4, 15] [%] | Bind A*24:02 [6, 16] [%] | Bind A*68:01 [7, 17] [%] | Bind C*07:01 [8, 18] [%] | Bind A*02:01 [2] | Bind A*24:02 [6] |
| --- | --- | --- | --- | --- | --- | --- | --- | --- | --- | --- | --- | --- | --- | --- | --- | --- | --- |
| ACGKAGCQT | 19 | 44 | 0 | 0 | 9 | 25 | 13 | 0 | – | – | – | – | – | – | – | – | – |
| AEFLENFVR | 0 | 12 | 0 | 10 | 0 | 1 | 63 | 13 | – | – | – | – | – | – | – | – | – |
| AGGYKAADM | 0 | 0 | 85 | 0 | 0 | 0 | 0 | 0 | – | – | – | – | – | – | – | – | – |
| AGSSAMILA | 0 | 56 | 0 | 12 | 10 | 0 | 2 | 14 | – | – | – | – | – | – | – | – | – |
| AIQGNVTSI [Rv3875_17-25] | – | – | – | – | 4 | – | – | – | 0 | 45 | 49 | 21 | 9 | 29 | 14 | – | – |
| ALLDPSQGM | 5 | 60 | 86 | 1 | 17 | 0 | 0 | 22 | – | – | – | – | – | – | – | – | – |
| AMILAAYHP | 0 | – | 33 | 64 | 1 | 0 | 0 | 1 | – | – | – | – | – | – | – | 34 | – |
| AQLNAMKGD | 0 | 10 | 56 | 0 | 0 | 29 | 0 | 3 | – | – | – | – | – | – | – | – | – |
| ATELNNALQ [Rv3875_62–70] | – | – | – | – | 12 | – | – | – | 16 | 8 | 45 | 4 | 13 | 5 | 8 | – | – |
| AVKPTGSAA | 0 | 10 | 7 | 0 | 82 | – | 0 | 0 | – | – | – | – | – | – | – | – | 0 |
| CGNGTPNEL | 0 | 20 | 41 | 0 | 0 | 2 | 0 | 28 | – | – | – | – | – | – | – | – | – |
| DAYNAAGGH | 8 | 4 | 18 | 29 | 12 | 14 | 64 | 16 | – | – | – | – | – | – | – | – | – |
| DGLRAQDDY | 2 | 0 | 58 | 0 | 1 | 0 | 4 | 0 | – | – | – | – | – | – | – | – | – |
| DINTPAFEW | 7 | 0 | 0 | 58 | 9 | 56 | 3 | 10 | – | – | – | – | – | – | – | – | – |
| DLVRAYHSM [Rv0288_64–72m1] | – | – | – | – | – | 0 | 4 | – | – | – | – | – | – | – | – | – | – |
| DPSQGMGPS | 21 | 30 | 29 | 12 | 0 | 58 | 0 | 19 | – | – | – | – | – | – | – | – | – |
| ELGGANIPA | 0 | 47 | 0 | 0 | 0 | 0 | 0 | 0 | – | – | – | – | – | – | – | – | – |
| ELPQW LSAN | 20 | 15 | 0 | 0 | 16 | 56 | 31 | 0 | – | – | – | – | – | – | – | – | – |
